Patent US20130326734A1, “COMPOSITIONS AND METHODS FOR CONTROLLING CARBON DIOXIDE- (CO2-) REGULATED STOMATAL APERTURES, WATER TRANSPIRATION AND WATER USE EFFICIENCY IN PLANTS” (THE REGENTS OF THE UNIVERSITY OF CALIFORNIA, priority 2011, published 2013)
Marks after values point to notes of the source that are not given here.

Legend:
[1] = system: intracellular pH of Arabidopsis guard cells; experiment: Fluorescence imaging of guard cells expressing the pH sensor Pt-GFP; format: cell-based
Procedure: Fluorescence imaging was performed with a TE300 inverted microscope using a TE-FM Epi-Fluorescence attachment (Nikon) as previously described (Allen et al, 2000). Fluorescence images at excitation wavelengths of 470 nm and 440 nm were taken every 2 s using light from a 75-Watt xenon short arc lamp (Osram, Germany). […] neutral density filters were used to reduce bleaching of fluorescent reporter. Metafluor software (MDS, Inc.) was used to control filter wheels, shutter and COOLSNAP™ (CoolSNAP) CCD camera from Photomerics when recording and also processing raw data. The fluorescence ratio F470/F440 of Pt-GFP was analyzed as a detection of pH shifts (Schulte et al, 2006). […]
For recording intracellular Pt-GFP fluorescence in response to changes in extracellular pH incubation buffers, the pH of incubation buffers containing 10 mM MES, 10 mM KCl and 50 μM CaCl2 at 5.0 and 7.5 was adjusted by adding Tris-HCl. […] For recording intracellular Pt-GFP fluorescence in response to constant extracellular pH and added weak acid, the perfusion buffers contained 10 mM MES, 10 mM KCl and 50 μM CaCl2, pH 5.6 supplemented with the indicated concentrations of sodium butyrate. […] Background fluorescence intensities at 470 nm were measured in regions lacking guard cells and are also shown for the corresponding experiments.

[2] = system: voltage-dependent anion channels (R-type anion channels) in Arabidopsis hypocotyl cells; details: Arabidopsis hypocotyl cells (Frachisse et al, 1999); cited from earlier work
[3] = system: S-type anion channel currents in Arabidopsis guard cell protoplasts; experiment: Whole-cell patch-clamp recording of S-type anion currents in guard cell protoplasts; format: cell-based; details: for current amplitude activated by bicarbonate at a voltage of −146 mV: 13.5 mM total bicarbonate; for HCO3− activated S-type anion current at a voltage of −146 mV: 11.5 mM [HCO3−]i and 2 mM [CO2]; for I (pA) at −146 mV: wild type Col-0 guard cells, pipette pH 7.1
Procedure: The interpulse period was 5 s. Liquid junction potentials (LJP) were determined using Clampex 10.0. No leak subtraction was applied for all current-voltage curves. Steady-state currents were the average currents during the last 500 ms of pulses. Detail contents of solutions are discussed, below (see “supplementary data”). Bicarbonate (CsHCO3) was freshly dissolved in the pipette solution before patch clamp experiments and pH was adjusted to the indicated values. The pipette solution was stored using air-tight precision glass syringes during patch clamp experiments to slow CO2 equilibration with the surrounding air and was not stored overnight. […] [HCO3^−] represents the free bicarbonate concentration; [CO2] represents the free CO2 concentration. […] To independently measure CO2 concentrations in the solutions at different pH values, an InPro 5000 CO2 sensor (Mettler Tolego 400, Mettler-Toledo Inc, USA) was used for dissolved CO2. The InPro 5000 sensor employs a gas permeable silicone membrane. The significance of differences between data sets was assessed by noncoupled double-tailed Student's t-test analysis. Values of P<0.05 were considered statistically significant.
For experiments analyzing effects of protons on S-type anion currents, the pipette solution contained 150 mM CsCl, 2 mM MgCl2, 6.7 mM EGTA, 0.6 mM CaCl2 (2 μM [Ca^2+]i), 5 mM Mg-ATP, 5 mM Tris-GTP, 1 mM Mes/Tris, pH 6.1. For experiments with pipette solution at pH 7.8, the pipette medium contained 150 mM CsCl, 2 mM MgCl2, 2 μM free [Ca^2+]i, 5 mM Mg-ATP, 5 mM Tris-GTP, 1 mM HEPES/Tris. Calcium affinities of EGTA and free Ca^2+ concentrations were calculated using the WEBMAXC tool (http://www.stanford.edu/-epatton/webmaxc/webmaxcE.htm), which considers pH, [ATP] and ionic conditions. The bath solution contained 30 mM CsCl, 2 mM MgCl2, 5 mM CaCl2 and 10 mM Mes/Tris, pH 5.6.

[4] = system: Arabidopsis intact leaves; experiment: Stomatal conductance measurements of intact leaves in response to imposed [CO2] (Li-6400 gas exchange analyzer); format: in vivo
Procedure: Stomatal conductance measurements of 5-week-old plants in response to the imposed [CO2] at a light (PAR) fluence rate of 150 μmol m^−2s^−1 were conducted with a Li-6400 gas exchange analyzer with a fluorometer chamber (Li-Cor Inc.) as described-previously (Hu at al, 2010). To reduce the wilting of abi1-1 and abi1-2 mutant leaves, all plants ware analyzed with a humidifier that humidified the air surrounding plants to ˜75-85%. Relative stomatal conductance values of intact leaves were calculated by normalization relative to 365 or 400 ppm just before transition to 800 ppm [CO2]. Data shown are mean±s.e. of at least 3 leaves per genotype in the same experimental set.

## CCCC(=O)[O-].[Na+] [sodium butyrate]
[1]; intact epidermes perfused with sodium butyrate-containing MES buffers, pH 5.6
  ratiometric fluorescence (F470/F440) of Pt-GFP, intracellular pH: clear shifts

## O=C(O)O [bicarbonate]
[2]
  relative permeability ratio PHCO3−PCO−: 0.8
[3]; Col-0 wild type guard cells, 2 μM [Ca2+]i, n=10
  current amplitude activated by bicarbonate at a voltage of −146 mV: −59±5.9 pA
[3]; Col-0 wild type, extracellular bath perfusion with 13.5 mM total bicarbonate (11.5 mM free HCO3−, 2 mM CO2) pH 7.1, n=6
  whole-cell current at a voltage of −144 mV: −17±5 pA
[3]; Ler wild type guard cells, 2 μM [Ca2+]i, n=7
  HCO3− activated S-type anion current at a voltage of −146 mV: −51±4.3 pA
[3]; ca1;ca4 double mutant guard cells, 13.5 mM total bicarbonate (11.5 mM free [HCO3−]i/2 mM free [CO2]) pH 7.1, 2 μM [Ca2+]i
  activation of anion currents: activated anion currents
[3]; ht1-2 guard cells, 5.75 mM free [HCO3−]i and 1 mM free [CO2] pH 7.1, 2 μM [Ca2+]i, P<0.01
  activation of S-type anion currents: significant activation
[3]; ht1-2 guard cells, 5.75 mM free [HCO3−]i, [Ca2+]i buffered to 0.15 μM
  activation of S-type anion currents: no significant S-type anion current activation
[3]; imposed chloride equilibrium potential +31.1 mV, n=8
  reversal potential of CO2+HCO3− activated whole-cell currents: +24.0±3.6 mV
[3]; ost1-2 mutant guard cells, 2 μM [Ca2+]i, n=6
  HCO3− activated S-type anion current at a voltage of −146 mV: −25.2±1.9 pA
[3]; ost1-3 mutant guard cells, 2 μM [Ca2+]i, n=6
  current amplitude activated by bicarbonate at a voltage of −146 mV: −24±1.9 pA
[3]; slac1-1 mutant guard cell protoplasts, 11.5 mM free [HCO3−]i and 2 mM [CO2], similar to control, P>0.05
  anion currents in the presence of bicarbonate: only small anion currents
[3]; [Ca^2+]i 0.15 μM, free [HCO3]i 11.5 mM
  I (pA) at −146 mV: −22.3 ± 2.3^c pA
[3]; [Ca^2+]i 0.6 μM, free [HCO3]i 11.5 mM
  I (pA) at −146 mV: −27.3 ± 4.5^f pA
[3]; [Ca^2+]i 2 μM, free [HCO3]i 5.75 mM
  I (pA) at −146 mV: −21.8 ± 3.2^d pA
[3]; [Ca^2+]i 2 μM, free [HCO3]i 11.5 mM
  I (pA) at −146 mV: −58.7 ± 5.9^e pA
[3]; wild type, 13.04 mM free [HCO3−] with 0.46 mM free [CO2] at pH 7.8, 2 μM [Ca2+]i, P<0.05
  activation of S-type anion currents: S-type anion currents were activated
[3]; wild type, 50 mM total bicarbonate in pipette pH 7.1 (43.4 mM free [HCO3−]i, 6.6 mM free [CO2]), n=4
  reversal potential of whole-cell S-type anion currents: +26.0±0.9 mV
[3]; wild type, 50 mM total bicarbonate, estimated using the Goldman equation
  relative permeability ratio of PHCO3−/PCi−: 0.06±0.01
[3]; wild type, bath perfused 2 min with 11.5 mM free [HCO3−] and 2 mM [CO2] at pH 7.1
  activation of S-type anion currents by extracellular application: No large S-type anion currents were activated

## O=C=O [CO2, carbon dioxide]
[3]; wild type, 2 mM intracellular free [CO2] (1.1 mM free [HCO3−]i) at pH 6.1, P>0.05
  activation of S-type anion channel currents: not activated
[4]; abi1-1 mutant plants, [CO2] shifted from 400 to 800 ppm for 30 min, ~75-85% humidity
  initial rate of stomatal conductance change: -0.035 ± 0.007 mmol H2O m^-2 s^-1 min^-1
[4]; abi2-1 mutant plants, [CO2] shifted from 400 to 800 ppm for 30 min, ~75-85% humidity
  initial rate of stomatal conductance change: -0.037 ± 0.007 mmol H2O m^-2 s^-1 min^-1
[4]; pyr1;pyl1;pyl2;pyl4 mutant plants, [CO2] shifted from 365 to 800 ppm for 30 min
  initial rate of stomatal conductance change: −0.035±0.008 mmol H2O m^−2 s^−1 min^−1
[4]; pyr1;pyl1;pyl2;pyl4 mutant plants, first 30 min upon shifting [CO2] from 800 to 100 ppm
  initial rate of stomatal conductance change: 0.022±0.002 mmol H2O m^−2 s^−1 min^−1
[4]; wild type plants, [CO2] shifted from 365 to 800 ppm for 30 min
  initial rate of stomatal conductance change: −0.038±0.014 mmol H2O m^−2 s^−1 min^−1
[4]; wild type plants, [CO2] shifted from 400 to 800 ppm for 30 min, ~75-85% humidity
  initial rate of stomatal conductance change: −0.041±0.01 mmol H2O m^−2 s^−1 min^−1
[4]; wild type plants, first 30 min upon shifting [CO2] from 800 to 100 ppm
  initial rate of stomatal conductance change: 0.042±0.013 mmol H2O m^−2 s^−1 min^−1
[1]; CO2 bubbled in extracellular perfusion buffers repeatedly shifted from 0 ppm to 800 ppm
  guard cell intracellular pH fluorescence (Pt-GFP): no clear shifts
